Source: US20110059114A1, “Compositions and Methods for the Treatment of Radioresistant Glioma Stem Cells” (DUKE UNIVERSITY, priority 2009, published 2011)

How the values were obtained:
Mcl-1 = assay: Immunoblotting of Mcl-1; type: cell-based, human; conditions: 2 μM DAPT, T4302 CD133+ cells
Experimental: FIG. 5 is a set of immunoblots and a graph illustrating that the Notch pathway regulates radioresistance of glioma stem cells via the Akt pathway and Mcl-1. T4302 CD 133+ cells were infected with control lentivirus or lentivirus directing expression of NICD2. Cells were pre-treated with or without 2 μM DPAT for 4 hours and exposed to 3-Gy radiation. Irradiated cells were collected at 24 or 48 hours after radiation, and sham-irradiated cells were collected at 48 hours after radiation. (A, C, D) Protein levels of phospho-Akt (S473), total Akt, PTEN, Bcl-2, Bcl-xL, Mcl-1, phospho-p53 (S15), total p53 and PUMA were assessed by immunoblotting. Actin was blotted as the loading control. (B) Control cells or NICD2-expressing cells were pre-treated with 10 μM PI3K inhibitor, LY294002, or 50 μM Akt inhibitor III (SH-6), for 4 hours prior to radiation exposure. Relative caspase 3/7 activities were determined at 48 hours after radiation exposure. #: p<0.001, by one-way ANOVA.
Antibodies, DNA constructs, lentiviruses and other reagents. The antibodies purchased from Cell Signaling Technology (Danvers, M A) include phosphor-S296-Chk1 (2349), total Chk1 (2345), phosphor-T68-Chk2 (2661), total Chk2 (2662), phospho-5473 Akt (#9271), total Akt (#9272), PTEN (#9556), phospho-S15-p53 (#9286), Bcl-2 (#2870), Bcl-xL (#2764), Mcl-1 (#4572), Puma (#4976). […]

CD133+ glioma stem cells = assay: Caspase-Glo 3/7 assay, relative caspase 3/7 activities; type: cell-based, human
Experimental: FIG. 2 is a series of graphs illustrating that γ-secretase inhibitors enhance radiation-induced cell death in glioma stem cells. (A) T4302 CD 133+ cells were pre-treated with DAPT or L685,458 for 4 hours and irradiated at 3 Gy. Percentage of dead cells was determined by trypan blue exclusion assay at 48 hours after radiation exposure. (B) T4302 CD 133+ cells were treated with GSIs ±radiation as indicated. Cells were then plated at 3000 cells per well in 96-well plates. Relative caspase 3/7 activities were determined by normalizing caspase activities to the corresponding cell titers. (C) T4302 CD 133+ cells were treated as described in FIG. 2A. 24 or 48 hours after radiation exposure, cells were labeled with FITC-conjugated Annexin V staining kit (BD Sciences) according to manufacturer's instructions and analyzed by flow cytometry. […] Relative caspase 3/7 activities were determined at 72 hours after radiation. (E) T4302 CD133+ cells were pre-treated with DAPT at indicated concentrations for 4 hours and irradiated at 3 Gy. Relative caspase activities were determined at 48 or 72 hours after radiation. *: p<0.01 by Student's t-test; #: p<0.01 by one-way ANOVA.
The caspase activities at 48 or 72 hours after radiation were measured using the Caspase-Glo 3/7 assay (Promega) according to the manufacturer's instructions. The caspase activities were normalized to the corresponding cell titers to obtain the relative caspase 3/7 activities.

CC(NC(=O)Cc1cc(F)cc(F)c1)C(=O)NC(C(=O)OC(C)(C)C)c1ccccc1 [DAPT, N-[N-(3,5-Difluorophenacetyl-L-alanyl)]-S-phenylglycine t-Butyl Ester]
levels of Mcl-1 (Mcl-1): decreased
levels of Mcl-1 proteins of a smaller size (Mcl-1): increased
radiosensitizing effect (CD133+ glioma stem cells; 200 nM DAPT, 3 Gy): still being effective
radiation-induced cell death (CD133+ glioma stem cells; 2 μM DAPT added 24 hours after radiation, T4105 or T4302 CD133+ cells): increased radiation-induced cell death
radiation-induced cell death (caspase 3/7) (CD133+ glioma stem cells; 2 μM, radiation 1, 2 or 3 Gy, 72 hours): enhanced radiation-induced cell death
radiosensitizing effects, dependence on concentration (CD133+ glioma stem cells; 3 Gy, 48 or 72 hours after radiation): concentration-dependent effect
radiation-induced cell death of cells infected with control lentivirus (CD133+ glioma stem cells; irradiated, T4302 CD133+): sensitive to DAPT
